From patent US20260176262A1, “KRAS INHIBITORS, PREPARATION METHOD THEREFOR, AND PHARMACEUTICAL USE THEREOF” (ABBISKO THERAPEUTICS CO., LTD., priority 2021, published 2026) come the findings set out here.

Read-outs that look alike come from different tables or passages of the source.

The target in one assay is KRAS^G12D/cRAF (Homo sapiens, UniProt P01116, G12D). Kind of assay: KRAS G12D/cRAF binding test (Alphalisa). Particulars: His-tagged KRAS G12D + GMPPNP, GST-tagged cRAF. How it is done:
The compound was dissolved in 100% DMSO at a starting concentration of 5 mM and diluted in DMSO with a 3-fold serial dilution method for a total of 8 concentration points. 1 μL of the compound or DMSO at each concentration point was added into 99 μL of the experimental buffer to obtain 10× stock solution.
• 1) 4 μL of the working mixture solution of His-tagged KRAS^G12D and GMPPNP was added to the 384-well plate. • 2) The 10× compound stock solution or 1% DMSO was added to the 384-well plate. • 3) The plate was centrifuged at 1000 rpm for 1 minute. • 4) 4 μL of GST-tagged cRAF solution was added to the 384-well plate. • 5) The plate was centrifuged at 1000 rpm for 1 minute. • 6) The plate was incubated at room temperature for 15 minutes. • 7) 10 μL of detection working solution was added to the 384-well plate. • 8) The plate was centrifuged at 1000 rpm for 1 minute. • 9) The plate was incubated at room temperature for 60 minutes. • 10) The 384-well plate was placed into Envision and assay data was obtained.
(§1) The ratio for each compound concentration was calculated from the signal of the DMSO control group contained in each assay plate and the Alphalisa signal in each compound well. The compound concentration required for inhibitory concentration at 50% (IC50) was determined using a four-parameter logarithmic dose-response equation by testing the concentration of the compound and the value of the ratio. The endpoint value (IC50) of the reference compound was assessed in each experiment as a quality control measure. If the endpoint value is within three times the expected value, the experiment may be considered acceptable.
(Alpha assays give light when donor and acceptor beads are brought close together.)

The subject of the next assay is AGS cell. Kind of assay: Anti-proliferative 2D CTG assay, AGS cells. Particulars: Homo sapiens, 72 h. The assay is classed as cell-based. How it is done: When the cell confluence was about 80%, the cells were isolated with 0.25% trypsin. Isolated cells were resuspended in 5 mL fresh cell culture medium and centrifuged for cell collection. Meanwhile, the number of cells was also calculated. The cells were then suspended in culture medium of medium concentration. The cells were placed into a 96-well plate with 1000 cells/well for AGS and 1000 cells/well for GP2D. The 96-well plate was placed in an incubator at 37° C. and incubated overnight.
1.2 Day 1 Compound Treatment From the 10 mM stock solution, with a ratio of 1:5, 10-point serial dilutions were performed. The 10× medium containing the compound was transferred into corresponding wells of the 96 wells. The final maximum compound concentration was […] and the final DMSO concentration was 0.1%. The 96-well plate was placed in a 37° C. incubator, the AGS cells were incubated for 3 days, and the GP2D cells were incubated for 4 days.
50 μL/well of detection reagent (CTG) was added to the AGS cells, and the signal was read in an Envision machine.
as §1, with “The percent inhibition (%) at” for “The ratio for”, “signal in” for “signal of”, “the HPE and ZPE” for “the DMSO”, “control wells and the fluorescence signal in the individual compound wells included” for “control group contained”, “assay plate. […]” for “assay plate and the Alphalisa signal in each compound well.”, “the inhibition percentage value.” for “the value of the ratio.”

Where [1] appears, read: AGS cells, incubated 3 days, CTG, numeric values, read-out: AGS cell IC50.
[2] abbreviates: AGS cells, incubated 3 days, CTG, class symbols, read-out: AGS cell IC50.

Sequence of KRAS^G12D/cRAF (P01116 1-188 isoform P01116-2 G12D): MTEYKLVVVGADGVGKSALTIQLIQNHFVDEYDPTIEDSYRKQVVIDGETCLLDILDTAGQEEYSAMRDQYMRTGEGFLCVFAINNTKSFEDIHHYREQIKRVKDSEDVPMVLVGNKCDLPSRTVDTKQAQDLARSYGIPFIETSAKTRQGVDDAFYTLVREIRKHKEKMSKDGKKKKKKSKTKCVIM

The term IC50 denotes the concentration at which inhibition is half-maximal. In the case of `C#Cc1c(F)ccc2cc(O)cc(-c3ncc4c(N5C[C@@H]6CC[C@](/C=C/F)(C5)N6)nc(OC[C@@]56CCCN5C[C@H](F)C6)nc4c3F)c12` [Example 62, 5-ethynyl-6-fluoro-4-(8-fluoro-2-(((2R,7aS)-2-fluorotetrahydro-1H-pyrrolizin-7a(5H)-yl)methoxy)-4-((1S,5S)-1-((E)-2-fluorovinyl)-3,8-diazabicyclo[3.2.1]octan-3-yl)pyrido[4,3-d]pyrimidin-7-yl)naphthalen-2-ol], the IC50 on KRAS^G12D/cRAF (numeric values) was 18 nM; with AGS cell (setting [1]) it was 27 nM.
With `C#Cc1c(F)ccc2cc(O)cc(-c3ncc4c(N5CC6CCC(CN(C)C(C)=O)(C5)N6)nc(OC[C@@]56CCCN5C[C@H](F)C6)nc4c3F)c12` (stereo partly drawn) [Example 25, N-((3-(7-(8-ethynyl-7-fluoro-3-hydroxynaphthalen-1-yl)-8-fluoro-2-(((2R,7aS)-2-fluorotetrahydro-1H-pyrrolizin-7a(5H)-yl)methoxy)pyrido[4,3-d]pyrimidin-4-yl)-3,8-diazabicyclo[3.2.1]octan-1-yl)methyl)-N-methylacetamide], the IC50 is 50 to 500 nM at KRAS^G12D/cRAF (class symbols) and above 500 nM in the assay with AGS cell (setting [2]).
On the same counts, the results for `[2H]C([2H])([2H])C12CCC(CN(c3nc(OC[C@@]45CCCN4C[C@H](F)C5)nc4c(F)c(-c5cc(O)cc6ccc(F)c(C#C)c56)nc(C)c34)C1)N2` (stereo partly drawn) [Example 40, 5-ethynyl-6-fluoro-4-(8-fluoro-2-(((2R,7aS)-2-fluorotetrahydro-1H-pyrrolizin-7a(5H)-yl)methoxy)-5-methyl-4-(1-(methyl-d3)-3,8-diazabicyclo[3.2.1]octan-3-yl)pyrido[4,3-d]pyrimidin-7-yl)naphthalen-2-ol] are below 50 nM and below 50 nM.
In the same order, the values of `C#Cc1c(F)ccc2cc(O)cc(-c3ncc4c(N5CC6CCC(CC)(C5)N6)nc(OC[C@@]56CCCN5C[C@H](F)C6)nc4c3F)c12` (stereo partly drawn) [Example 19, 4-(4-(1-ethyl-3,8-diazabicyclo[3.2.1]octan-3-yl)-8-fluoro-2-(((2R,7aS)-2-fluorotetrahydro-1H -pyrrolizin-7a(5H)-yl)methoxy)pyrido[4,3-d]pyrimidin-7-yl)-5-ethynyl-6-fluoronaphthalen-2-ol] are 50 to 500 nM and below 50 nM.
With `C#Cc1c(F)ccc2cc(O)cc(-c3ncc4c(N5C[C@H]6CC[C@@](/C=C\F)(C5)N6)nc(OC[C@@]56CCCN5C[C@H](F)C6)nc4c3F)c12` [Example 59, 5-ethynyl-6-fluoro-4-(8-fluoro-2-(((2R,7aS)-2-fluorotetrahydro-1H-pyrrolizin-7a(5H)-yl)methoxy)-4-((1R,5R)-1-((Z)-2-fluorovinyl)-3,8-diazabicyclo[3.2.1]octan-3-yl)pyrido[4,3-d]pyrimidin-7-yl)naphthalen-2-ol], the IC50 worked out at 15 nM at KRAS^G12D/cRAF (numeric values) and 13 nM with AGS cell (setting [1]).
For the molecule `[2H]C([2H])([2H])OCC12CCC(CN(c3nc(OC[C@@]45CCCN4C[C@H](F)C5)nc4c(F)c(-c5cc(O)cc6ccc(F)c(C#C)c56)nc(OC)c34)C1)N2` (stereo partly drawn) [Example 36, 5-ethynyl-6-fluoro-4-(8-fluoro-2-(((2R,7aS)-2-fluorotetrahydro-1H-pyrrolizin-7a(5H)-yl)methoxy)-5-methoxy-4-(1-((methoxy-d3)methyl)-3,8-diazabicyclo[3.2.1]octan-3-yl)pyrido[4,3-d]pyrimidin-7-yl)naphthalen-2-ol], the IC50 at KRAS^G12D/cRAF (class symbols) and in the assay with AGS cell (setting [2]) was 50 to 500 nM throughout.
On to `C#Cc1c(F)ccc2cc(O)cc(-c3ncc4c(N5C[C@@H]6CC[C@](COC)(C5)N6)nc(OC[C@@]56CCCN5C[C@H](F)C6)nc4c3F)c12` [Example 46, 5-ethynyl-6-fluoro-4-(8-fluoro-2-(((2R,7aS)-2-fluorotetrahydro-1H-pyrrolizin-7a(5H)-yl)methoxy)-4-((1R,5S)-1-(methoxymethyl)-3,8-diazabicyclo[3.2.1]octan-3-yl)pyrido[4,3-d]pyrimidin-7-yl)naphthalen-2-ol], for which the figures for the IC50 on KRAS^G12D/cRAF (class symbols) and with AGS cell (setting [2]) were 50 to 500 nM and below 50 nM, respectively.
In the same order, the values of `[2H]C([2H])([2H])OC[C@]12CC[C@H](CN(c3nc(OC[C@@]45CCCN4C[C@H](F)C5)nc4c(F)c(-c5cc(O)cc6ccc(F)c(C#C)c56)nc(OCC)c34)C1)N2` [Example 37, 4-(5-ethoxy-8-fluoro-2-(((2R, 7aS)-2-fluorotetrahydro-1H-pyrrolizin-7a(5H)-yl)methoxy)-4-((1S,5R)-1-((methoxy-d3)methyl)-3,8-diazabicyclo [3.2.1]octan-3-yl)pyrido [4,3-d]pyrimidin-7-yl)-5-ethynyl-6-fluoronaphthalen-2-ol] are 50 to 500 nM and below 50 nM.
As to `C#Cc1c(F)ccc2cc(O)cc(-c3ncc4c(N5CC6CCC(COC)(C5)N6)nc(OC[C@@]56CCCN5C[C@H](F)C6)nc4c3F)c12` (stereo partly drawn) [Example 1, 5-ethynyl-6-fluoro-4-(8-fluoro-2-(((2R,7aS)-2-fluorotetrahydro-1H-pyrrolizin-7a-yl)methoxy)-4-(1-(methoxymethyl)-3,8-diazabicyclo[3.2.1]octan-3-yl)pyrido[4,3-d]pyrimidin-7-yl)naphthalen-2-ol], the IC50 on KRAS^G12D/cRAF (numeric values) is 100 nM; with AGS cell (AGS, read-out: AGS cell IC50 (nM)), 20 nM.
For the molecule `C#Cc1c(F)ccc2cc(O)cc(-c3ncc4c(N5CC6CCC(C#C)(C5)N6)nc(OC[C@@]56CCCN5C[C@H](F)C6)nc4c3F)c12` (stereo partly drawn) [Example 6, 5-ethynyl-4-(4-(1-ethynyl-3,8-diazabicyclo[3.2.1]octan-3-yl)-8-fluoro-2-(((2R,7aS)-2-fluorotetrahydro-1H-pyrrolizin-7a(5H)-yl)methoxy)pyrido[4,3-d]pyrimidin-7-yl)-6-fluoronaphthalen-2-ol], the figures for the IC50 at KRAS^G12D/cRAF (class symbols) and with AGS cell (setting [2]) were 50 to 500 nM and below 50 nM, respectively.
As to `[2H]C([2H])([2H])OC[C@]12CC[C@H](CN(c3nc(OC[C@@]45CCCN4C[C@H](F)C5)nc4c(F)c(-c5cc(O)cc6ccc(F)c(C#C)c56)nc(OC)c34)C1)N2` [Example 49, 5-ethynyl-6-fluoro-4-(8-fluoro-2-(((2R,7aS)-2-fluorotetrahydro-1H-pyrrolizin-7a(5H)-yl)methoxy)-5-methoxy-4-((1S,5R)-1-((methoxy-d3)methyl)-3,8-diazabicyclo[3.2.1]octan-3-yl)pyrido[4,3-d]pyrimidin-7-yl)naphthalen-2-ol], the figures for the IC50 at KRAS^G12D/cRAF (numeric values) and in the assay on AGS cell (setting [1]) were 262 nM and 288 nM, respectively.
Regarding `C#Cc1c(F)ccc2cc(O)cc(-c3ncc4c(N5CC6CCC(CCOC)(C5)N6)nc(OC[C@@]56CCCN5C[C@H](F)C6)nc4c3F)c12` (stereo partly drawn) [Example 9, 5-ethynyl-6-fluoro-4-(8-fluoro-2-(((2R,7aS)-2-fluorotetrahydro-1H-pyrrolizin-7a(5H)-yl)methoxy)-4-(1-(2-methoxyethyl)-3,8-diazabicyclo[3.2.1]octan-3-yl)pyrido[4,3-d]pyrimidin-7-yl) naphthalen-2-ol], the IC50 on KRAS^G12D/cRAF (class symbols) and with AGS cell (setting [2]) was 50 to 500 nM in each case.
Take `[2H]C([2H])([2H])OCC12CCC(C)(CN(c3nc(OC[C@@]45CCCN4C[C@H](F)C5)nc4c(F)c(-c5cc(O)cc6ccc(F)c(C#C)c56)ncc34)C1)N2` (stereo partly drawn) [Example 18, 5-ethynyl-6-fluoro-4-(8-fluoro-2-(((2R,7aS)-2-fluorotetrahydro-1H-pyrrolizin-7a(5H)-yl)methoxy)-4-(1-((methoxy-d3)methyl)-5-methyl-3,8-diazabicyclo [3.2.1]octan-3-yl)pyrido[4,3-d]pyrimidin-7-yl)naphthalen-2-ol]: the IC50 on KRAS^G12D/cRAF (class symbols) and with AGS cell (setting [2]) was 50 to 500 nM in each case.
Turning to `C#Cc1c(F)ccc2cc(O)cc(-c3ncc4c(N5CC6CCC(CS(C)(=O)=O)(C5)N6)nc(OC[C@@]56CCCN5C[C@H](F)C6)nc4c3F)c12` (stereo partly drawn) [Example 11, 5-ethynyl-6-fluoro-4-(8-fluoro-2-(((2R,7aS)-2-fluorotetrahydro-1H-pyrrolizin-7a(5H)-yl)methoxy)-4-(1-((methanesulfonyl)methyl)-3,8-diazabicyclo[3.2.1]octan-3-yl)pyrido[4,3-d]pyrimidin-7-yl)naphthalen-2-ol], the IC50 on KRAS^G12D/cRAF (class symbols) and in the assay with AGS cell (setting [2]) was above 500 nM in each case.
